We go through 14 compounds from US20230183237A1, “COMPETITIVE AND NONCOMPETITIVE INHIBITORS OF THE MUSCARINIC ACETYLCHOLINE RECEPTOR M5” (Vanderbilt University, priority 2020, published 2023).

The target in this assay is T1, hM5 (Homo sapiens, UniProt P08912).
T1 construct: expressed in transfected cells
T1 sequence (P08912 1-532): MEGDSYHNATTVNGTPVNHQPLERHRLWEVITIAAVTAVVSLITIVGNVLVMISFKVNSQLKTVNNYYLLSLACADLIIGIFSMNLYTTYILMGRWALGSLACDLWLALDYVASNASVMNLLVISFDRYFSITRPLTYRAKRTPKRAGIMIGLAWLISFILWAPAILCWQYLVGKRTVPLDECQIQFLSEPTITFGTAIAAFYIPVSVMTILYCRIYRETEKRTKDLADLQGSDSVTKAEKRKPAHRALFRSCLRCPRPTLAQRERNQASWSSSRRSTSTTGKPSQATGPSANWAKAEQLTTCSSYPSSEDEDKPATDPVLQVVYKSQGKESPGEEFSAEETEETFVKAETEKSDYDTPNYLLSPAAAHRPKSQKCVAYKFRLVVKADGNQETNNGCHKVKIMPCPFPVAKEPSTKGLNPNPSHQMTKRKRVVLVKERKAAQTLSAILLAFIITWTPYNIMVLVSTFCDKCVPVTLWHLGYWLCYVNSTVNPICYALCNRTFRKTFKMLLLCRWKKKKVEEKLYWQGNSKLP
The assay can be described thus: Calcium mobilization concentration-response (IC50 vs EC80 acetylcholine), CHO hM5. The class given is cell-based. To be noted: CELL LINE hM5, read-out: IC50. The gist of the method:
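CHO cells stably expressing hM5, dye-loaded, in HBSS/20 mM HEPES/2.5 mM probenecid, pH 7.4. Compounds were pre-incubated 140 s before an EC80 acetylcholine challenge, with calcium flux read kinetically.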

Setting [1] is: calcium mobilization, EC80 acetylcholine addition.

SMILES strings stand for the structures. Like-named read-outs stand apart in the source and are kept apart here. A value given as a limit tells only on which side of the number the result lay.

What is called IC50 is the point on the concentration scale where inhibition reaches its midpoint. As to `[2H]C1([2H])CC(c2cn3ncnc3cc2F)CC([2H])([2H])N1S(=O)(=O)c1cnn(C)c1C(F)F` [Compound 476, 6-(1-((5-(difluoromethyl)-1-methyl-1H-pyrazol-4-yl)sulfonyl)piperidin-4-yl-2,2,6,6-d4)-7-fluoro-[1,2,4]triazolo[1,5-a]pyridine], the concentration for half-maximal inhibition (IC50) (vs EC80 acetylcholine) was 92 nM.
Turning to `O=S(=O)(c1cnn2c1CCC2)N1CCC(c2ccncc2)CC1` [Compound 366, 3-((4-(pyridin-4-yl)piperidin-1-yl)sulfonyl)-5,6-dihydro-4H-pyrrolo[1,2-b]pyrazole], the IC50 under setting [1] is more than 10000 nM.
The same measure, in the same setting: the value for `Cc1c(C2CCN(S(=O)(=O)c3cnn4c3CCCC4)CC2)cn2ncnc2c1F` [Compound 305, 8-fluoro-7-methyl-6-(1-((4,5,6,7-tetrahydropyrazolo[1,5-a]pyridin-3-yl)sulfonyl)piperidin-4-yl)-[1,2,4]triazolo[1,5-a]pyridine] was 12 nM; that for `Cc1ncc(S(=O)(=O)N2CCC(c3ccc4c(c3)OCO4)CC2)n1C` [Compound 358, 4-(benzo[d][1,3]dioxol-5-yl)-1-((1,2-dimethyl-1H-imidazol-5-yl)sulfonyl)piperidine] was 1390 nM.
Regarding `Cc1cc2ncnn2cc1C1CCN(S(=O)(=O)c2cc3c(cc2F)OCC3)CC1` [Compound 47, 6-(1-((6-fluoro-2,3-dihydrobenzofuran-5-yl)sulfonyl)piperidin-4-yl)-7-methyl-[1,2,4]triazolo[1,5-a]pyridine], the IC50 under setting [1] came out at 441 nM.
Same read-out and setting: the value for `Cc1cc2nccn2nc1C1=CCN(S(=O)(=O)c2ccc3c(c2)CCO3)CC1` [Compound 34, 6-(1-((2,3-dihydrobenzofuran-5-yl)sulfonyl)-1,2,3,6-tetrahydropyridin-4-yl)-7-methylimidazo[1,2-b]pyridazine] was more than 10000 nM.
For the compound `Cc1ccncc1C1CCN(S(=O)(=O)c2cnn(C)c2Cl)CC1` [Compound 383, 3-(1-((5-chloro-1-methyl-1H-pyrazol-4-yl)sulfonyl)piperidin-4-yl)-4-methylpyridine], under setting [1], the half-maximal inhibitory concentration (IC50) is 1640 nM.
Regarding `CCn1cc(S(=O)(=O)N2CCC(c3cn4ncnc4cc3C)CC2)c(C2CC2)n1` [Compound 134, 6-(1-((3-cyclopropyl-1-ethyl-1H-pyrazol-4-yl)sulfonyl)piperidin-4-yl)-7-methyl-[1,2,4]triazolo[1,5-a]pyridine], the IC50 under setting [1] was more than 10000 nM.
Consider `O=S(=O)(c1ccc2ncsc2c1)N1CCC(c2cn3ccccc3n2)CC1` [Compound 9, 6-((4-(imidazo[1,2-a]pyridin-2-yl)piperidin-1-yl)sulfonyl)benzo[d]thiazole], for which the half-maximal inhibitory concentration (IC50) under setting [1] is more than 10000 nM.
Still for that read-out and setting: the result for `Cc1nc2[nH]cnc2cc1C1CCN(S(=O)(=O)c2cnn3c2CCC3)CC1` [Compound 289, 6-(1-((5,6-dihydro-4H-pyrrolo[1,2-b]pyrazol-3-yl)sulfonyl)piperidin-4-yl)-5-methyl-3H-imidazo[4,5-b]pyridine] reads more than 10000 nM; that for `O=S(=O)(c1ccc2ncsc2c1)N1CCC(c2ccncc2)CC1` [Compound 1, 6-((4-(pyridin-4-yl)piperidin-1-yl)sulfonyl)benzo[d]thiazole], more than 10000 nM.
With `Cc1cc2ncnn2cc1C1CCN(S(=O)(=O)c2scnc2C)CC1` [Compound 601, 4-methyl-5-((4-(7-methyl-[1,2,4]triazolo[1,5-a]pyridin-6-yl)piperidin-1-yl)sulfonyl)thiazole], the concentration for half-maximal inhibition (IC50) (vs EC80 acetylcholine) was 5240 nM.
`Cn1nc(-c2ccco2)cc1C1CCN(S(=O)(=O)c2cnn(C)c2Cl)CC1` [Compound 590, 1-((5-Chloro-1-methyl-1H-pyrazol-4-yl)sulfonyl)-4-(3-(furan-2-yl)-1-methyl-1H-pyrazol-5-yl)piperidine]: the IC50 (vs EC80 acetylcholine) is 3100 nM.
For the compound `Cc1cn2ncnc2cc1C1=CCN(S(=O)(=O)c2cnn(C)c2C)CC1` [Compound 212, 7-(1-((1,5-dimethyl-1H-pyrazol-4-yl)sulfonyl)-1,2,3,6-tetrahydropyridin-4-yl)-6-methyl-[1,2,4]triazolo[1,5-a]pyridine], under setting [1], the IC50 stood at 1400 nM.
